Bridges are numbered along the chain shown (N, C = ends).
Experiments:
[1] = tested on: IMR90 human fetal lung fibroblasts; experiment: Fibrosis assay: active TGF-β levels in TGF-β treated fibroblasts (ELISA); assay type: cell-based; settings: for Fibrosis (% inhib.): % inhibition relative to positive control; for inhibition of fibrosis (active TGF-β, in words): 10 ng/mL peptide, 48 hours, compared to +TGFβ1 control
Experimental: Compounds 132, 133, 135, 150, 152, 157-161, 265-269, 275, 277, and 278 were evaluated for their ability to inhibit fibrosis. IMR90 human fetal lung fibroblasts were obtained from ATCC and maintained in DMEM supplemented with 10% fetal bovine serum. In order to examine the effect of peptides on myofibroblast differentiation, 80% confluent cultures were serum starved overnight prior to addition of TGF-β (2 ng/mL, R&D Systems). Cells were treated with TGF-β for 24 hours prior to addition of peptides (10 ng/mL). 48 hours after addition of peptides, culture supernatants were collected and levels of active TGF-β measured using commercially available TGF-β ELISA (Quantikine, R&D Systems).
Values are the Mean and SDM n=3 replicates. *p<0.05, **p<0.01, ***p<0.001 when compared to the +TGFβ1 control. In FIG. 47, where bars are labeled with two compound numbers (“133/150” and “135/152”) this means that the data were pooled for the indicated compounds, i.e., for the non-acetylated and acetylated versions of the indicated peptides.

[2] = Direct HA-binding ELISA of biotinylated peptides on HA coated plates (Example 4); parameters: key to HA binding: absorbance (color) read at 450 nm; settings: for HA binding: as repeated in tables 16, 18, 20; for HA direct binding (OD): optical density, summary tables 15, 17, 19
Outline: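 N-terminally biotinylated peptides (AEEA spacer) added to HA-coated wells at 0.8 or 0.08 μM, n=3, overnight at 4° C with shaking; biotin-labeled 7 kDa RHAMM as positive control. Bound peptide detected with streptavidin-HRP (1 hr, room temperature) and TMB substrate (5-10 min), absorbance at 450 nm.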

[3] = Function blocking score: total percent inhibition over migration, invasion, inflammation and fibrosis assays divided by number of assays; assay type: cell-based; settings: total percent inhibition for all assays tested divided by number of assays
[4] = tested on: RHAMM-overexpressing (LR21) cells; experiment: Cell migration assay (Boyden chamber, Chemicon ECM510); assay type: cell-based; settings: for Migration (% inhib.): % inhibition relative to positive control; for inhibition of cell migration (in words): 10 ng/mL peptide, 20 hours, compared to 30% serum control
Outline: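 Serum-starved LR21 cells (7.5×10^4) placed in the upper Boyden chamber with or without 10 ng/mL peptide, with 30% FBS in DMEM as lower-chamber chemoattractant. Cells crossing the membrane after 20 h quantified by CyQUANT GR fluorescence (480/520 nm); mean of n=3, compared with 30% serum control.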

[5] = tested on: RHAMM-overexpressing (LR21) cells; experiment: Cell invasion assay (Boyden chamber with MATRIGEL, Chemicon ECM555); assay type: cell-based; settings: for inhibition of cellular invasion (in words): 10 ng/mL peptide, 20 hours, compared to 30% serum control; for Invasion (% inhib.): % inhibition relative to positive control, 10 ng/mL of peptide
Outline: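 Serum-starved RHAMM-overexpressing LR21 cells (7.5×10^4) placed in upper Boyden chamber over MATRIGEL-coated filter, with or without 10 ng/mL peptide; 30% FBS/DMEM chemoattractant below. Invaded cells quantified after 20 h by CyQUANT GR fluorescence (480/520 nm); mean ± SD, n=3, versus 30% serum control.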

Row | HA binding [2] | HA direct binding (OD) [2] | Substance | Fibrosis (% inhib.) [1] | Function blocking score (FBS) [3] | Migration (% inhib.) [4] | inhibition of cellular invasion (in words) [5] | Invasion (% inhib.) [5] | inhibition of fibrosis (active TGF-β, in words) [1] | inhibition of cell migration (in words) [4]
1 | 0.125 | 0.125 OD | Ac-(cyclo-7-11, cyclo-28-32)-NLKQKI[EHVVK]LKDENSQLKSEVSKLR[EQLVK]RKQN-NH2 (Ac-NLKQKIEHVVKLKDENSQLKSEVSKLREQLVKRKQN-NH2; lactam 7-11, 28-32; SMILES CC[C@H](C)[C@H](NC(=O)[C@H](CCCCN)NC(=O)[C@H](CCC(N)=O)NC(=O)[C@H](CCCCN)NC(=O)[C@H](CC(C)C)NC(=O)[C@H](CC(N)=O)NC(C)=O)C(=O)N[C@H]1CCC(=O)NCCCC[C@@H](C(=O)N[C@@H](CC(C)C)C(=O)N[C@@H](CCCCN)C(=O)N[C@@H](CC(=O)O)C(=O)N[C@@H](CCC(=O)O)C(=O)N[C@@H](CC(N)=O)C(=O)N[C@@H](CO)C(=O)N[C@@H](CCC(N)=O)C(=O)N[C@@H](CC(C)C)C(=O)N[C@@H](CCCCN)C(=O)N[C@@H](CO)C(=O)N[C@@H](CCC(=O)O)C(=O)N[C@H](C(=O)N[C@@H](CO)C(=O)N[C@@H](CCCCN)C(=O)N[C@@H](CC(C)C)C(=O)N[C@@H](CCCNC(=N)N)C(=O)N[C@H]2CCC(=O)NCCCC[C@@H](C(=O)N[C@@H](CCCNC(=N)N)C(=O)N[C@@H](CCCCN)C(=O)N[C@@H](CCC(N)=O)C(=O)N[C@@H](CC(N)=O)C(N)=O)NC(=O)[C@H](C(C)C)NC(=O)[C@H](CC(C)C)NC(=O)[C@H](CCC(N)=O)NC2=O)C(C)C)NC(=O)[C@H](C(C)C)NC(=O)[C@H](C(C)C)NC(=O)[C@H](Cc2c[nH]cn2)NC1=O) [Compound 278] | 0 % inhib. | 12 | 45 % inhib. |  | 0 % inhib. | strong trend towards inhibition of fibrosis | significantly inhibit cell migration
2 | 0.12 | 0.12 OD | Ac-(cyclo-28-32)-NLKQKIKHVVKLKDENSQLKSEVSKLR[EQLVK]RKQN-NH2 (Ac-NLKQKIKHVVKLKDENSQLKSEVSKLREQLVKRKQN-NH2; lactam 28-32; SMILES CC[C@H](C)[C@H](NC(=O)[C@H](CCCCN)NC(=O)[C@H](CCC(N)=O)NC(=O)[C@H](CCCCN)NC(=O)[C@H](CC(C)C)NC(=O)[C@H](CC(N)=O)NC(C)=O)C(=O)N[C@@H](CCCCN)C(=O)N[C@@H](Cc1c[nH]cn1)C(=O)N[C@H](C(=O)N[C@H](C(=O)N[C@@H](CCCCN)C(=O)N[C@@H](CC(C)C)C(=O)N[C@@H](CCCCN)C(=O)N[C@@H](CC(=O)O)C(=O)N[C@@H](CCC(=O)O)C(=O)N[C@@H](CC(N)=O)C(=O)N[C@@H](CO)C(=O)N[C@@H](CCC(N)=O)C(=O)N[C@@H](CC(C)C)C(=O)N[C@@H](CCCCN)C(=O)N[C@@H](CO)C(=O)N[C@@H](CCC(=O)O)C(=O)N[C@H](C(=O)N[C@@H](CO)C(=O)N[C@@H](CCCCN)C(=O)N[C@@H](CC(C)C)C(=O)N[C@@H](CCCNC(=N)N)C(=O)N[C@H]1CCC(=O)NCCCC[C@@H](C(=O)N[C@@H](CCCNC(=N)N)C(=O)N[C@@H](CCCCN)C(=O)N[C@@H](CCC(N)=O)C(=O)N[C@@H](CC(N)=O)C(N)=O)NC(=O)[C@H](C(C)C)NC(=O)[C@H](CC(C)C)NC(=O)[C@H](CCC(N)=O)NC1=O)C(C)C)C(C)C)C(C)C) [Compound 277] | 52 % inhib. | 29 | 63 % inhib. |  | 0 % inhib. |  | significantly inhibit cell migration
3 | 0.015 | 0.015 OD | Ac-(cyclo-4,8)-VSK[ERSQK]VKRKQN-NH2 (Ac-VSKERSQKVKRKQN-NH2; lactam 4-8; SMILES CC(=O)N[C@H](C(=O)N[C@@H](CO)C(=O)N[C@@H](CCCCN)C(=O)N[C@H]1CCC(=O)NCCCC[C@@H](C(=O)N[C@H](C(=O)N[C@@H](CCCCN)C(=O)N[C@@H](CCCNC(=N)N)C(=O)N[C@@H](CCCCN)C(=O)N[C@@H](CCC(N)=O)C(=O)N[C@@H](CC(N)=O)C(N)=O)C(C)C)NC(=O)[C@H](CCC(N)=O)NC(=O)[C@H](CO)NC(=O)[C@H](CCCNC(=N)N)NC1=O)C(C)C) [Compound 150] | 31 % inhib. | 27 | 0 % inhib. | significantly inhibited cellular invasion | 79 % inhib. |  | significantly inhibit cell migration

More lines, now with the values behind:

Row | Substance | HA binding [2] | HA direct binding (OD) [2] | Fibrosis (% inhib.) [1] | Function blocking score (FBS) [3] | Migration (% inhib.) [4] | inhibition of cellular invasion (in words) [5] | Invasion (% inhib.) [5] | inhibition of fibrosis (active TGF-β, in words) [1] | inhibition of cell migration (in words) [4]
4 | Ac-(cyclo-10-14, cyclo-15-19)-KIKHVVKLK[EENSK][KKSEE]SKLRSQLVKRK-NH2 (Ac-KIKHVVKLKEENSKKKSEESKLRSQLVKRK-NH2; lactam 10-14, 15-19; SMILES CC[C@H](C)[C@H](NC(=O)[C@H](CCCCN)NC(C)=O)C(=O)N[C@@H](CCCCN)C(=O)N[C@@H](Cc1c[nH]cn1)C(=O)N[C@H](C(=O)N[C@H](C(=O)N[C@@H](CCCCN)C(=O)N[C@@H](CC(C)C)C(=O)N[C@@H](CCCCN)C(=O)N[C@H]1CCC(=O)NCCCC[C@@H](C(=O)N[C@H]2CCCCNC(=O)CC[C@@H](C(=O)N[C@@H](CO)C(=O)N[C@@H](CCCCN)C(=O)N[C@@H](CC(C)C)C(=O)N[C@@H](CCCNC(=N)N)C(=O)N[C@@H](CO)C(=O)N[C@@H](CCC(N)=O)C(=O)N[C@@H](CC(C)C)C(=O)N[C@H](C(=O)N[C@@H](CCCCN)C(=O)N[C@@H](CCCNC(=N)N)C(=O)N[C@@H](CCCCN)C(N)=O)C(C)C)NC(=O)[C@H](CCC(=O)O)NC(=O)[C@H](CO)NC(=O)[C@H](CCCCN)NC2=O)NC(=O)[C@H](CO)NC(=O)[C@H](CC(N)=O)NC(=O)[C@H](CCC(=O)O)NC1=O)C(C)C)C(C)C) [Compound 268] | 0.19 | 0.19 OD | 0 % inhib. | 14 | 0 % inhib. | significantly inhibited cellular invasion | 50 % inhib. |  | 
5 | Ac-KIKHVVKLKDENSQLKSEVSKLRSQLVKRK-NH2 [Compound 265] | 0.10 | 0.10 OD | 0 % inhib. | 28 | 63 % inhib. | significantly inhibited cellular invasion | 46 % inhib. |  | significantly inhibit cell migration
6 | Ac-(cyclo-10-14, cyclo-15-19)-KIKHVVKLK[EENSK][EKSEK]SKLRSQLVKRK-NH2 (Ac-KIKHVVKLKEENSKEKSEKSKLRSQLVKRK-NH2; lactam 10-14, 15-19; SMILES CC[C@H](C)[C@H](NC(=O)[C@H](CCCCN)NC(C)=O)C(=O)N[C@@H](CCCCN)C(=O)N[C@@H](Cc1c[nH]cn1)C(=O)N[C@H](C(=O)N[C@H](C(=O)N[C@@H](CCCCN)C(=O)N[C@@H](CC(C)C)C(=O)N[C@@H](CCCCN)C(=O)N[C@H]1CCC(=O)NCCCC[C@@H](C(=O)N[C@H]2CCC(=O)NCCCC[C@@H](C(=O)N[C@@H](CO)C(=O)N[C@@H](CCCCN)C(=O)N[C@@H](CC(C)C)C(=O)N[C@@H](CCCNC(=N)N)C(=O)N[C@@H](CO)C(=O)N[C@@H](CCC(N)=O)C(=O)N[C@@H](CC(C)C)C(=O)N[C@H](C(=O)N[C@@H](CCCCN)C(=O)N[C@@H](CCCNC(=N)N)C(=O)N[C@@H](CCCCN)C(N)=O)C(C)C)NC(=O)[C@H](CCC(=O)O)NC(=O)[C@H](CO)NC(=O)[C@H](CCCCN)NC2=O)NC(=O)[C@H](CO)NC(=O)[C@H](CC(N)=O)NC(=O)[C@H](CCC(=O)O)NC1=O)C(C)C)C(C)C) [Compound 266] | 0.24 | 0.24 OD | 24 % inhib. | 28 | 61 % inhib. | significantly inhibited cellular invasion | 50 % inhib. | strong trend towards inhibition of fibrosis | significantly inhibit cell migration

Source: patent US10562935B2, “Stapled peptides and uses thereof” (London Health Sciences Centre Research Inc., priority 2015, dated 2020)
